Drawing on patent US5416209A, “5,6-dihydro-dibenz[b,e]azepine-6,11-dione-11-oximes” (Bayer Aktiengesellschaft, priority 1991, dated 1995), this text covers IC50 for 8 compounds.

In this assay the test system is HIV virus (HIV-infected normal human blood lymphocytes (PBLs) or alternatively H9 cells). The assay can be described thus: HIV infection in cell culture (inhibition of virus-induced syncytia). It is filed as cell-based. The note with it: Human immunodeficiency virus 1, 72 h, concentration at which 50% of the virus-induced syncytia are suppressed, day 3 to 6 after infection, 37° C. As for the experimental part: HIV infection in cell culture
The HIV test was carried out with slight modifications according to the method of Pauwels et al. [cf. Journal of Virological Methods 20, (1988), 309-321].
Normal human blood lymphocytes (PBLs) were concentrated by means of Ficoll-Hypaque and stimulated with phytohaemagglutinin (90 μg/ml) and interleukin-2 (40 U/ml) in RPMI 1640 and 20% foetal calf serum. For infection with the infectious HIV, PBLs were pelleted and the cell pellet was then suspended in 1 ml of HIV virus adsorption solution and incubated for 1 hour at 37° C.
Alternatively, HIV-susceptible H9 cells were employed instead of normal human blood lymphocytes for testing the antiviral effects of the compounds according to the invention.
The virus adsorption solution was centrifuged and the infected cell pellet was taken up in growth medium so that a concentration of 1×10^5 cells per ml was established. The cells infected in this way were pipetted into the wells of 96-well microtiter plates to give 1×10^4 cells/well.
The first vertical row of the microtiter plate contained only growth medium and cells which had not been infected, but otherwise treated exactly as described above (cell control). The second vertical row of the microtiter plate contained only HIV-infected cells (virus control) in growth medium. The other wells contained the compounds according to the invention in differing concentrations, starting from the wells of the 3rd vertical row of the microtiter plate, from which the test substances were diluted 2^10 times in 2-fold steps.
The test batches were incubated at 37° C. until, in the untreated virus control, the syncytia formation typical of HIV occurred (between day 3 and 6 after infection), which was then microscopically assessed. Under these test conditions, in the untreated virus control about 20-50 syncytia resulted, while the untreated cell control contained no syncytia.
The IC50 values were determined as the concentration of the treated and infected cells at which 50% (about 10-20 syncytia) of the virus-induced syncytia were suppressed by treatment with the compound according to the invention.

The compound `Cc1ccnc2c1NC(=O)c1cccnc1N2C1CC1` [BIRG 587, reference compound] came in with an IC50 of 90 nM.

`CCO/N=c1/c2cc(Cl)ccc2[nH]c(=O)c2ccccc12` [Example 4, (E) -2-Chloro-11-ethoxyimino-6-oxo-5,6-dihydro-11-H-dibenz [b,e]azepine] yielded an IC50 of 60 nM.

`CON=c1c2cc(Cl)ccc2[nH]c(=O)c2ccccc12` [Example 6] gave a concentration for half-maximal inhibition (IC50) of 1500 nM.

For the compound `CCO/N=c1\c2cc(Cl)ccc2[nH]c(=O)c2ccccc12` [Example 8], the IC50 turned out to be 500 nM.

Take `O=c1[nH]c2ccc(Cl)cc2c(=NOCc2ccccc2)c2ccccc12` [Example 17]: 700 nM corresponded to half-maximal inhibition (IC50).

In turn, `O=c1[nH]c2ccc(Cl)cc2c(=NOCc2c(F)c(F)c(F)c(F)c2F)c2ccccc12` [Example 18] had an IC50 of 1000 nM.

In turn, `COC(=O)CON=c1c2cc(Cl)ccc2[nH]c(=O)c2ccccc12` [Example 24] came in with a half-inhibitory concentration (IC50) of 2300 nM.

`O=c1[nH]c2ccc(Cl)cc2c(=NOC2CCCCO2)c2ccccc12` (centres unmarked) [Example 31] returned a half-inhibitory concentration (IC50) of 250 nM.

As a reminder, the IC50 is the concentration needed to halve the response being measured. A higher IC50 goes with a need for much substance.
